Target: α-chymotrypsin (Bos taurus, UniProt P00766)
Assay: α-Chymotrypsin inhibition assay
Conditions: not given

SMILES | Ki [µM]
CC1CCN(C(=O)N(Cc2cccc(C(=N)N)c2)NC(=O)c2ccc3ccccc3c2)CC1 [Compound 6] | 17.1
Nc1ccc(CN(NS(=O)(=O)c2ccc3ccccc3c2)C(=O)N2CCOCC2)cc1 [Compound 7] | 4
CC(=O)Nc1ccc(CN(NS(=O)(=O)c2ccc3ccccc3c2)C(=O)N2CCOCC2)cc1 [Compound 8] | 24.7
CC(=O)NCc1ccc(CN(NS(=O)(=O)c2ccc3ccccc3c2)C(=O)N2CCCCC2)cc1 [Compound 9] | 40.6
O=C(N1CCOCC1)N(CC1CCNCC1)NS(=O)(=O)c1ccc2ccccc2c1 [Compound 12] | 150
O=C(N1CCCCC1)N(CC1CCNCC1)NS(=O)(=O)c1ccc2ccccc2c1 [Compound 13] | 65.9

Same assay, conditions: read-out: Ki α-chymotrypsin; substrate Suc-Ala-Ala-Pro-Phe-AMC, pH 7.8, 30°C

SMILES | Ki [µM]
CC(C)CC(NS(=O)(=O)c1ccc2ccccc2c1)C(=O)NN(Cc1ccc(C(=N)N)cc1)C(=O)N1CCCCCC1 (stereo not shown) [Compound 10] | 8.8

Target: Thrombin
Assay: not given
Set-up: method as in PMID 15497744, PMID 15544050, PMID 17484277
Conditions: amidolytic assay, chromogenic substrate; determined previously; cited from earlier work

SMILES | Ki [µM]
CC1CCN(C(=O)N(Cc2cccc(C(=N)N)c2)NC(=O)c2ccc3ccccc3c2)CC1 [Compound 6] | 6.8
Nc1ccc(CN(NS(=O)(=O)c2ccc3ccccc3c2)C(=O)N2CCOCC2)cc1 [Compound 7] | 4.5
CC(C)CC(NS(=O)(=O)c1ccc2ccccc2c1)C(=O)NN(Cc1ccc(C(=N)N)cc1)C(=O)N1CCCCCC1 (stereo not shown) [Compound 10] | 10
O=C(N1CCOCC1)N(CC1CCNCC1)NS(=O)(=O)c1ccc2ccccc2c1 [Compound 12] | 53
O=C(N1CCCCC1)N(CC1CCNCC1)NS(=O)(=O)c1ccc2ccccc2c1 [Compound 13] | 30

Target: Factor Xa
Assay: not given
Set-up: method as in PMID 15497744, PMID 15544050, PMID 17484277
Conditions: amidolytic assay, chromogenic substrate; determined previously; cited from earlier work

SMILES | Ki [µM]
CC1CCN(C(=O)N(Cc2cccc(C(=N)N)c2)NC(=O)c2ccc3ccccc3c2)CC1 [Compound 6] | 5.7
Nc1ccc(CN(NS(=O)(=O)c2ccc3ccccc3c2)C(=O)N2CCOCC2)cc1 [Compound 7] | 62
CC(C)CC(NS(=O)(=O)c1ccc2ccccc2c1)C(=O)NN(Cc1ccc(C(=N)N)cc1)C(=O)N1CCCCCC1 (stereo not shown) [Compound 10] | > 100

Target: Trypsin
Assay: not given
Set-up: method as in PMID 15497744, PMID 15544050, PMID 17484277
Conditions: amidolytic assay, chromogenic substrate; determined previously; cited from earlier work

SMILES | Ki [µM]
CC1CCN(C(=O)N(Cc2cccc(C(=N)N)c2)NC(=O)c2ccc3ccccc3c2)CC1 [Compound 6] | 1.8
Nc1ccc(CN(NS(=O)(=O)c2ccc3ccccc3c2)C(=O)N2CCOCC2)cc1 [Compound 7] | 5.6
CC(C)CC(NS(=O)(=O)c1ccc2ccccc2c1)C(=O)NN(Cc1ccc(C(=N)N)cc1)C(=O)N1CCCCCC1 (stereo not shown) [Compound 10] | > 100
O=C(N1CCOCC1)N(CC1CCNCC1)NS(=O)(=O)c1ccc2ccccc2c1 [Compound 12] | > 200
O=C(N1CCCCC1)N(CC1CCNCC1)NS(=O)(=O)c1ccc2ccccc2c1 [Compound 13] | > 200

Tested on: Ramos Burkitt’s lymphoma cells
Assay: Metabolic activity assay (MTS), Ramos
Assay type: cell-based, human
Conditions: 100 µM, 24 h
Procedure: When investigating the potency of selected serine protease inhibitors to induce cell death in human B lymphoma cells, we identified a set of compounds cytotoxic for Burkitt’s lymphoma. Using a metabolic activity assay (MTS), we evaluated the proliferation rate of Ramos Burkitt’s lymphoma cells, in the presence of serine protease inhibitors. Cells were treated for 24 h with the compound of interest at concentrations of 100 µM (1–13, 15, 16) or 50 µM (14). After a comparison of metabolic activity relative to that in the untreated control, three groups with distinct modes of action were determined (Figure 3A). […] The second group (compounds 1–3, 5, 7 and 13) caused a moderate decrease (50% to 80%) relative to untreated cells. The last group of compounds (11, 15, 16) severely impaired the metabolic activity, such that it fell to under 6%.
Cells (1×10^5 cells/mL for Ramos, Daudi, U937 and Jurkat, and 1×10^6 cells/mL for PBMC) were treated with the appropriate amounts of compounds of interest or corresponding vehicle (control cells), then seeded in triplicate in 96 well plates. The metabolic activity was assessed using the CellTiter 96® Aqueous One Solution Cell Proliferation Assay (Promega, Madison/WI, USA), in accordance with the manufacturer’s instructions.

SMILES | cytotoxicity group (Figure 3A)
CC1CCN(C(=O)N(Cc2cccc(C(=N)N)c2)NC(=O)c2ccc3ccccc3c2)CC1 [Compound 6] | well tolerated (well tolerated by Ramos, since their residual metabolic activity did not fall below 80%)
Nc1ccc(CN(NS(=O)(=O)c2ccc3ccccc3c2)C(=O)N2CCOCC2)cc1 [Compound 7] | moderately cytotoxic (caused a moderate decrease (50% to 80%) relative to untreated cells)
CC(=O)Nc1ccc(CN(NS(=O)(=O)c2ccc3ccccc3c2)C(=O)N2CCOCC2)cc1 [Compound 8] | well tolerated (well tolerated by Ramos, since their residual metabolic activity did not fall below 80%)
CC(=O)NCc1ccc(CN(NS(=O)(=O)c2ccc3ccccc3c2)C(=O)N2CCCCC2)cc1 [Compound 9] | well tolerated (well tolerated by Ramos, since their residual metabolic activity did not fall below 80%)
CC(C)CC(NS(=O)(=O)c1ccc2ccccc2c1)C(=O)NN(Cc1ccc(C(=N)N)cc1)C(=O)N1CCCCCC1 (stereo not shown) [Compound 10] | well tolerated (well tolerated by Ramos, since their residual metabolic activity did not fall below 80%)
O=C(N1CCOCC1)N(CC1CCNCC1)NS(=O)(=O)c1ccc2ccccc2c1 [Compound 12] | well tolerated (well tolerated by Ramos, since their residual metabolic activity did not fall below 80%)
O=C(N1CCCCC1)N(CC1CCNCC1)NS(=O)(=O)c1ccc2ccccc2c1 [Compound 13] | moderately cytotoxic (caused a moderate decrease (50% to 80%) relative to untreated cells)

Same assay, conditions: Homo sapiens, 100 µM, 24 h, read-out: residual metabolic activity relative to untreated control

SMILES | viability at 100 µM [%]
CC1CCN(C(=O)N(Cc2cccc(C(=N)N)c2)NC(=O)c2ccc3ccccc3c2)CC1 [Compound 6] | ≥ 80
Nc1ccc(CN(NS(=O)(=O)c2ccc3ccccc3c2)C(=O)N2CCOCC2)cc1 [Compound 7] | 50 to 80
CC(=O)Nc1ccc(CN(NS(=O)(=O)c2ccc3ccccc3c2)C(=O)N2CCOCC2)cc1 [Compound 8] | ≥ 80
CC(=O)NCc1ccc(CN(NS(=O)(=O)c2ccc3ccccc3c2)C(=O)N2CCCCC2)cc1 [Compound 9] | ≥ 80
CC(C)CC(NS(=O)(=O)c1ccc2ccccc2c1)C(=O)NN(Cc1ccc(C(=N)N)cc1)C(=O)N1CCCCCC1 (stereo not shown) [Compound 10] | ≥ 80
O=C(N1CCOCC1)N(CC1CCNCC1)NS(=O)(=O)c1ccc2ccccc2c1 [Compound 12] | ≥ 80
O=C(N1CCCCC1)N(CC1CCNCC1)NS(=O)(=O)c1ccc2ccccc2c1 [Compound 13] | 50 to 80
